Test system: rodent lifetime carcinogenesis bioassay, tumor incidence TD50
Assay: chronic cancer bioassays in animals – CPDB, compiled studies (AID 1745844)

With `Cn1c(N)nc2c3cccnc3ccc21` as the compound, how does the TD50 (monkey, strain Cynomolgus [Macaca fascicularis], both sexes, by gavage, site: any site (literature study), lesion: malignant tumor, dosed 485 weeks, study length 485 weeks) read?
Its TD50 is 0.374 mg/kg/day.

What about the TD50 (monkey, strain Cynomolgus [Macaca fascicularis], both sexes, by gavage, site: liver, lesion: hepatocellular carcinoma, dosed 485 weeks, study length 485 weeks) of the same compound?
The TD50 was 0.374 mg/kg/day.

And the TD50 (mouse, strain CDF1, females, in feed, site: forestomach, lesion: several types, types named in the paper, dosed 96 weeks, study length 96 weeks)?
Its TD50 is 62.4 mg/kg/day.

And the TD50 (mouse, strain CDF1, females, in feed, site: liver, lesion: hepatocellular carcinoma, dosed 96 weeks, study length 96 weeks)?
The TD50 was 24.1 mg/kg/day.

What about the TD50 (mouse, strain CDF1, females, in feed, site: liver, lesion: several types, types named in the paper, dosed 96 weeks, study length 96 weeks) of the same compound?
The TD50 was 17.5 mg/kg/day.

What about the TD50 (mouse, strain CDF1, females, in feed, site: lung, lesion: several types, types named in the paper, dosed 96 weeks, study length 96 weeks) of the same compound?
The TD50 was 67.9 mg/kg/day.

And the TD50 (mouse, strain CDF1, males, in feed, site: forestomach, lesion: several types, types named in the paper, dosed 96 weeks, study length 96 weeks)?
The TD50 was 42.3 mg/kg/day.

And the TD50 (mouse, strain CDF1, males, in feed, site: forestomach, lesion: squamous-cell carcinoma, dosed 96 weeks, study length 96 weeks)?
The TD50 was 153 mg/kg/day.

And the TD50 (mouse, strain CDF1, males, in feed, site: liver, lesion: hepatocellular carcinoma, dosed 96 weeks, study length 96 weeks)?
Its TD50 is 91.6 mg/kg/day.

And the TD50 (mouse, strain CDF1, males, in feed, site: liver, lesion: several types, types named in the paper, dosed 96 weeks, study length 96 weeks)?
The TD50 was 48.6 mg/kg/day.

And the TD50 (mouse, strain CDF1, males, in feed, site: lung, lesion: adenocarcinoma, dosed 96 weeks, study length 96 weeks)?
Its TD50 is 60.2 mg/kg/day.

And the TD50 (mouse, strain CDF1, males, in feed, site: lung, lesion: several types, types named in the paper, dosed 96 weeks, study length 96 weeks)?
The TD50 was 22.4 mg/kg/day.

What about the TD50 (rat, strain F344/DuCrj, females, in feed, site: Zymbal's gland, lesion: squamous-cell carcinoma, dosed 72 weeks, study length 72 weeks) of the same compound?
Its TD50 is 4.38 mg/kg/day.

And the TD50 (rat, strain F344/DuCrj, females, in feed, site: clitoral gland, lesion: squamous-cell carcinoma, dosed 72 weeks, study length 72 weeks)?
The TD50 was 7.11 mg/kg/day.

What about the TD50 (rat, strain F344/DuCrj, females, in feed, site: large intestine, lesion: adenocarcinoma, dosed 72 weeks, study length 72 weeks) of the same compound?
Its TD50 is 19.3 mg/kg/day.

What about the TD50 (rat, strain F344/DuCrj, females, in feed, site: liver, lesion: hepatocellular carcinoma, dosed 72 weeks, study length 72 weeks) of the same compound?
Its TD50 is 8.24 mg/kg/day.

What about the TD50 (rat, strain F344/DuCrj, females, in feed, site: oral cavity, lesion: squamous-cell carcinoma, dosed 72 weeks, study length 72 weeks) of the same compound?
Its TD50 is 195 mg/kg/day.

What about the TD50 (rat, strain F344/DuCrj, females, in feed, site: skin, lesion: squamous-cell carcinoma, dosed 72 weeks, study length 72 weeks) of the same compound?
Its TD50 is 63.2 mg/kg/day.

And the TD50 (rat, strain F344/DuCrj, females, in feed, site: small intestine, lesion: adenocarcinoma, dosed 72 weeks, study length 72 weeks)?
The TD50 was 195 mg/kg/day.

What about the TD50 (rat, strain F344/DuCrj, males, in feed, site: Zymbal's gland, lesion: squamous-cell carcinoma, dosed 55 weeks, study length 55 weeks) of the same compound?
The TD50 was 0.999 mg/kg/day.

And the TD50 (rat, strain F344/DuCrj, males, in feed, site: large intestine, lesion: adenocarcinoma, dosed 55 weeks, study length 55 weeks)?
Its TD50 is 2.34 mg/kg/day.

What about the TD50 (rat, strain F344/DuCrj, males, in feed, site: liver, lesion: hepatocellular carcinoma, dosed 55 weeks, study length 55 weeks) of the same compound?
Its TD50 is 2.08 mg/kg/day.

What about the TD50 (rat, strain F344/DuCrj, males, in feed, site: oral cavity, lesion: squamous-cell carcinoma, dosed 55 weeks, study length 55 weeks) of the same compound?
Its TD50 is 44.8 mg/kg/day.

And the TD50 (rat, strain F344/DuCrj, males, in feed, site: skin, lesion: squamous-cell carcinoma, dosed 55 weeks, study length 55 weeks)?
The TD50 was 4.16 mg/kg/day.

What about the TD50 (rat, strain F344/DuCrj, males, in feed, site: small intestine, lesion: adenocarcinoma, dosed 55 weeks, study length 55 weeks) of the same compound?
The TD50 was 6.45 mg/kg/day.

And the TD50 (rat, strain Fischer 344, females, in feed, site: Zymbal's gland, lesion: one or several types, types not named, dosed 53 weeks, study length 78 weeks)?
Its TD50 is 2.26 mg/kg/day.

And the TD50 (rat, strain Fischer 344, females, in feed, site: liver, lesion: hepatocellular carcinoma, dosed 53 weeks, study length 78 weeks)?
The TD50 was 5.06 mg/kg/day.

What about the TD50 (rat, strain Fischer 344, females, in feed, site: lung, lesion: adenoma, dosed 53 weeks, study length 78 weeks) of the same compound?
The TD50 was 16.2 mg/kg/day.

And the TD50 (rat, strain Fischer 344, females, in feed, site: mammary gland, lesion: one or several types, types not named, dosed 53 weeks, study length 78 weeks)?
Its TD50 is 3.52 mg/kg/day.

And the TD50 (rat, strain Fischer 344, females, in feed, site: preputial gland, lesion: one or several types, types not named, dosed 53 weeks, study length 78 weeks)?
Its TD50 is 3.19 mg/kg/day.

What about the TD50 (rat, strain Fischer 344, females, in feed, site: sebaceous gland, lesion: several types, types named in the paper, dosed 53 weeks, study length 78 weeks) of the same compound?
Its TD50 is 32.9 mg/kg/day.

And the TD50 (rat, strain Fischer 344, males, by gavage, site: Zymbal's gland, lesion: squamous-cell carcinoma, dosed 35 weeks, study length 52 weeks)?
The TD50 was 0.287 mg/kg/day.

What about the TD50 (rat, strain Fischer 344, males, by gavage, site: any site (literature study), lesion: several types, types named in the paper, dosed 35 weeks, study length 52 weeks) of the same compound?
Its TD50 is 0.287 mg/kg/day.

And the TD50 (rat, strain Fischer 344, males, by gavage, site: colon, lesion: adenocarcinoma, dosed 35 weeks, study length 52 weeks)?
The TD50 was 0.803 mg/kg/day.

And the TD50 (rat, strain Fischer 344, males, by gavage, site: liver, lesion: hepatocellular carcinoma, dosed 35 weeks, study length 52 weeks)?
The TD50 was 0.579 mg/kg/day.

What about the TD50 (rat, strain Fischer 344, males, by gavage, site: skin, lesion: squamous-cell carcinoma, dosed 35 weeks, study length 52 weeks) of the same compound?
Its TD50 is 0.579 mg/kg/day.

And the TD50 (rat, strain Fischer 344, males, by gavage, site: small intestine, lesion: adenocarcinoma, dosed 35 weeks, study length 52 weeks)?
The TD50 was 1.55 mg/kg/day.

What about the TD50 (rat, strain Fischer 344, males, in feed, site: Zymbal's gland, lesion: one or several types, types not named, dosed 53 weeks, study length 63 weeks) of the same compound?
Its TD50 is 1.2 mg/kg/day.

And the TD50 (rat, strain Fischer 344, males, in feed, site: colon, lesion: one or several types, types not named, dosed 53 weeks, study length 63 weeks)?
The TD50 was 10.5 mg/kg/day.

And the TD50 (rat, strain Fischer 344, males, in feed, site: liver, lesion: hepatocellular carcinoma, dosed 53 weeks, study length 63 weeks)?
The TD50 was 10.5 mg/kg/day.

What about the TD50 (rat, strain Fischer 344, males, in feed, site: lung, lesion: several types, types named in the paper, dosed 53 weeks, study length 63 weeks) of the same compound?
The TD50 was 27.1 mg/kg/day.

And the TD50 (rat, strain Fischer 344, males, in feed, site: preputial gland, lesion: one or several types, types not named, dosed 53 weeks, study length 63 weeks)?
Its TD50 is 6.87 mg/kg/day.

What about the TD50 (rat, strain Fischer 344, males, in feed, site: sebaceous gland, lesion: several types, types named in the paper, dosed 53 weeks, study length 63 weeks) of the same compound?
The TD50 was 0.998 mg/kg/day.

From PubChem BioAssay AID1745844 (Carcinogenic Potency Database (CPDB), 2022)
